Read-outs that look alike come from different tables or passages of the source.
Key:
Assay in all cases: Growth inhibition GI50 in vitro (CCK8/MTT, 72 h)
[1] = test system: H1975 (EGFR L858R/T790M); type: cell-based, human; details: Homo sapiens, NCI-H1975
[2] = test system: HCC827 (EGFR dE746-A750); type: cell-based, human; details: Homo sapiens
[3] = test system: PC-9 (EGFR dE746-A750); type: cell-based, human; details: Homo sapiens
[4] = test system: PC-9ER (EGFR delE746-A750/T790M); type: cell-based, human; details: Homo sapiens, PC-9/ER; EGFR mutant cell line; range of GI50; read-out: GI50 PC9ER
[5] = test system: N87 (HER2 Amp); type: cell-based, human; details: Homo sapiens
[6] = test system: AU565 (Her2 amp); type: cell-based, human; details: Homo sapiens
[7] = test system: SK-BR-3 (Her2 amp); type: cell-based, human; details: Homo sapiens
[8] = test system: Calu-3 (Her2 amp); type: cell-based; details: Homo sapiens
[9] = test system: H292 (EGFR WT); type: cell-based; details: Homo sapiens, NCI-H292
[10] = test system: A431 (EGFR WT, amplification and high expression); type: cell-based, human; details: Homo sapiens, A-431
[11] = test system: A549 (EGFR WT); type: cell-based, human; details: Homo sapiens
[12] = test system: H1299 (EGFR wt, Nras Q61K); type: cell-based, human; details: Homo sapiens, NCI-H1299
[13] = test system: H460 (EGFR wt, Kras G61H); type: cell-based, human; details: Homo sapiens, NCI-H460
[14] = EGFR mutant cell line, range of GI50, read-out: GI50 H1975
[15] = Table 15, 1000 nM to 0.03 nM serial dilution, read-out: GI50 H1975 (EGFR L858R/T790M)
[16] = HCC827, EGFR mutant cell line, range of GI50, read-out: GI50 HCC827
[17] = EGFR mutant cell line, range of GI50, read-out: GI50 PC-9
[18] = Table 15, 1000 nM to 0.03 nM serial dilution, read-out: GI50 PC-9 (EGFR dE746-A750)
[19] = HER2 positive cell line, range of GI50, read-out: GI50 N87
[20] = Table 16, 1000 nM to 0.03 nM serial dilution, read-out: GI50 N87 (HER2 amp)
[21] = AU565, HER2 positive cell line, range of GI50, read-out: GI50 AU-565
[22] = SK-BR-3, HER2 positive cell line, range of GI50, read-out: GI50 SK-BR-3
[23] = Calu-3, Table 16, 1000 nM to 0.03 nM serial dilution, read-out: GI50 Calu3 (HER2 amp)
[24] = Table 15, 1000 nM to 0.03 nM serial dilution, read-out: GI50 H292 (EGFR WT)
[25] = EGFR wild type cell line, range of GI50, read-out: GI50 A431
[26] = A549, EGFR wild type cell line, range of GI50, read-out: GI50 A549
[27] = A549, Table 15, 1000 nM to 0.03 nM serial dilution, read-out: GI50 A549 (EGFR WT)
[28] = EGFR wild type cell line, range of GI50, read-out: GI50 H1299
[29] = EGFR wild type cell line, range of GI50, read-out: GI50 H460
[30] = H1975, EGFR L858R/T790M, read-out: GI50
[31] = HCC827, EGFR dE746-A750, read-out: GI50
[32] = PC-9, EGFR dE746-A750, read-out: GI50
[33] = N87, EGFR wt, Her2 amp, read-out: GI50
[34] = AU565, EGFR wt, Her2 amp, read-out: GI50
[35] = SK-BR-3, EGFR wt, Her2 amp, read-out: GI50
[36] = Calu-3, EGFR wt, Her2 amp, read-out: GI50
[37] = A549, EGFR wt, Kras G12S, read-out: GI50
[38] = H1299, EGFR wt, Nras Q61K, read-out: GI50
[39] = H460, EGFR wt, Kras G61H, read-out: GI50

Compound	GI50 [1, 14]	GI50 [2, 16]	GI50 [3, 17]	GI50 [4]	GI50 [5, 19]	GI50 [6, 21]	GI50 [7, 22]	GI50 [10, 25]	GI50 [11, 26]	GI50 [12, 28]	GI50 [13, 29]	GI50 [1, 30]	GI50 [2, 31]	GI50 [3, 32]	GI50 [5, 33]	GI50 [6, 34]	GI50 [7, 35]	GI50 [8, 36]	GI50 ([9]; H292, EGFR wt, read-out: GI50)	GI50 ([10]; A431, EGFR wt, read-out: GI50)	also measured
C=CC(=O)Nc1cc(Nc2nccc(-n3ccc4c(OC)cccc43)n2)c(OC)cc1N(C)CCN(C)C [Compound 99, N-(5-(4-(4-methoxyl-1H-indol-1-yl)-pyrimidin-2-ylamino)-2-(2-(dimethylamino-ethyl)-methyl-amino)-4-methoxyl-phenyl)-acrylamide]	< 0.01 µM	0.01 to 0.1 µM	0.01 to 0.1 µM	< 0.01 µM	< 0.01 µM	0.01 to 0.1 µM	0.01 to 0.1 µM	0.1 to 1 µM	> 1 µM	> 1 µM	> 1 µM										GI50 [1, 15]: 0.00925 µM; GI50 [3, 18]: 0.0141 µM; GI50 [5, 20]: 0.00135 µM; GI50 [8, 23]: 0.00326 µM; GI50 [9, 24]: > 1 µM; GI50 [11, 27]: > 1 µM
C=CC(=O)Nc1cc(Nc2nccc(Nc3cccc(Cl)c3)n2)c(OC)cc1N(C)CCN(C)C [Compound 2, N-(5-(4-(3-chloro-phenylamino)-pyrimidin-2-ylamino)-2-(2-(dimethylamino-ethyl)-methyl-amino)-4-methoxyl-phenyl)-acrylamide]	0.01 to 0.1 µM	< 0.01 µM	< 0.01 µM	< 0.01 µM	< 0.01 µM	0.01 to 0.1 µM	0.01 to 0.1 µM	0.1 to 1 µM	> 1 µM	> 1 µM	> 1 µM	0.0146 µM	0.0023 µM	0.0054 µM	0.01 µM	0.0154 µM	0.0195 µM	0.0312 µM	> 1 µM	0.156 µM	GI50 [11, 37]: > 1 µM; GI50 [12, 38]: > 1 µM; GI50 [13, 39]: > 1 µM
C=CC(=O)Nc1cc(Nc2cc(Nc3cc(OC)c(Cl)cc3Cl)ncn2)c(OC)cc1N(C)CCN(C)C [Compound 136, N-(5-(6-(2,4-dichloro-5-methoxyl-phenylamino)-pyrimidin-4-ylamino)-2-((2-dimethylamino-ethyl)-methyl-amino)-4-methoxyl-phenyl)-acrylamide]	0.01 to 0.1 µM	0.01 to 0.1 µM	0.01 to 0.1 µM	< 0.01 µM	0.01 to 0.1 µM	0.01 to 0.1 µM	0.01 to 0.1 µM	0.1 to 1 µM	> 1 µM	> 1 µM	> 1 µM										GI50 [1, 15]: 0.0101 µM; GI50 [3, 18]: 0.0105 µM; GI50 [5, 20]: 0.0112 µM; GI50 [8, 23]: 0.0147 µM; GI50 [9, 24]: > 1 µM; GI50 [11, 27]: > 1 µM
C=CC(=O)Nc1cc(Nc2cc(-c3cn(C(C)C)c4ccccc34)ncn2)c(OC)cc1N(C)CCN(C)C [Compound 183]	0.01 to 0.1 µM	< 0.01 µM	< 0.01 µM	0.01 to 0.1 µM	0.01 to 0.1 µM	0.01 to 0.1 µM	0.01 to 0.1 µM	0.1 to 1 µM	> 1 µM	> 1 µM	> 1 µM	0.0125 µM	0.009 µM	0.00338 µM	0.0195 µM	0.0195 µM	0.0781 µM	0.0234 µM	> 1 µM	0.315 µM	GI50 [11, 37]: > 1 µM; GI50 [12, 38]: > 1 µM; GI50 [13, 39]: > 1 µM
C=CC(=O)Nc1cc(Nc2ncc(Cl)c(Nc3ccc(OCc4ccccn4)c(Cl)c3)n2)c(OC)cc1N(C)CCN(C)C [Compound 19, N-(5-(5-chloro-4-(3-chloro-4-(pyridin-2-methoxyl)phenylamino)-pyrimidin-2-ylamino)-2-((2-(dimethylamino)ethyl)(methyl)amino)-4-methoxyl-phenyl)-acrylamide]	< 0.01 µM	< 0.01 µM	< 0.01 µM	< 0.01 µM	0.01 to 0.1 µM	0.01 to 0.1 µM	0.01 to 0.1 µM	0.1 to 1 µM	> 1 µM	> 1 µM	> 1 µM	0.0049 µM	0.0064 µM	0.0073 µM	0.0195 µM	0.0175 µM	0.0391 µM	0.0195 µM	> 1 µM	0.625 µM	GI50 [11, 37]: 0.978 µM; GI50 [12, 38]: > 1 µM; GI50 [13, 39]: > 1 µM
C=CC(=O)Nc1cc(Nc2cc(Nc3ccc(F)c(Cl)c3)ncn2)c(OC)cc1N(C)CCN(C)C [Compound 140, N-(5-(6-(3-chloro-4-fluoro-phenylamino)-pyrimidin-4-ylamino)-2-((2-dimethylamino-ethyl)-methyl-amino)-4-methoxyl-phenyl)-acrylamide]	< 0.01 µM	< 0.01 µM	< 0.01 µM	< 0.01 µM	< 0.01 µM	< 0.01 µM	< 0.01 µM	0.01 to 0.1 µM	> 1 µM	> 1 µM	> 1 µM	0.0038 µM	0.0011 µM	0.00038 µM	0.0048 µM	0.0026 µM	0.0056 µM	0.0125 µM	> 1 µM	0.0375 µM	GI50 [11, 37]: > 1 µM; GI50 [12, 38]: > 1 µM; GI50 [13, 39]: > 1 µM
C=CC(=O)Nc1cc(Nc2nccc(Nc3ccc(OCc4ccccn4)c(Cl)c3)n2)c(OC)cc1N(C)CCN(C)C [Compound 18, N-(5-(4-(3-chloro-4-(pyridin-2-methoxyl)phenylamino)pyrimidin-2-ylamino)-2-((2-(dimethylamino)ethyl)(methyl)amino)-4-methoxyl-phenyl)-acrylamide]	0.01 to 0.1 µM	0.01 to 0.1 µM	0.01 to 0.1 µM	< 0.01 µM	0.01 to 0.1 µM	0.01 to 0.1 µM	0.01 to 0.1 µM	0.1 to 1 µM	> 1 µM	> 1 µM	> 1 µM	0.0146 µM	0.0094 µM	0.0145 µM	0.0195 µM	0.0156 µM	0.0391 µM	0.0234 µM	> 1 µM	0.438 µM	GI50 [11, 37]: > 1 µM; GI50 [12, 38]: > 1 µM; GI50 [13, 39]: > 1 µM
C=CC(=O)Nc1cc(Nc2ncnc(Nc3cccc(F)c3)n2)c(OC)cc1N(C)CCN(C)C [Compound 114, N-(5-(4-(3-fluoro-phenylamino)-[1,3,5]triazin-2-ylamino)-2-((2-dimethylamino-ethyl)-methyl-amino)-4-methoxyl-phenyl)-acrylamide]	0.01 to 0.1 µM	< 0.01 µM	< 0.01 µM	0.01 to 0.1 µM	< 0.01 µM	< 0.01 µM	< 0.01 µM	0.1 to 1 µM	> 1 µM	> 1 µM	> 1 µM	0.01 µM	0.0011 µM	0.002 µM	0.0048 µM	0.01 µM	0.0048 µM	0.0072 µM	> 1 µM	0.117 µM	GI50 [11, 37]: > 1 µM; GI50 [12, 38]: > 1 µM; GI50 [13, 39]: > 1 µM

Reference: patent US10342796B2, “Acrylanilide derivative, preparation method, and applications thereof in pharmacy” (Ancureall Pharmaceutical (Shanghai) Co., Ltd., priority 2015, dated 2019)
